Results published in US10538567B2, “Compounds as peptidic trigonal GLP1/glucagon/GIP receptor agonists” (priority 2016, dated 2020).
Numbered stars: 1 amine (or outer) side, 2 acyl side, 3 side chain; on linkers, the order of the positions; unused ones are H or OH. Square brackets hold non-standard residues; d marks the D form. Side chains are listed from the residue outwards. Peptide text beside a SMILES is read from it. * marks the point of attachment. γGlu = O=C(O)[C@H](CCC(=O)[*:2])N[*:1]; Palmitoyl = CCCCCCCCCCCCCCCC(=O)*; Aib = CC(C)(N)C(=O)O

What was measured:
[1] = test system: female diet-induced obese (DIO) C57BL/6 mice; test: Acute and chronic effects after s.c. treatment in female diet-induced obese (DIO) C57BL/6 mice; format: in vivo; conditions: for time until mice habituated to the feed intake suppression / Feed consumption estimate: DIO mice, 30 μg/kg s.c. twice-daily; for Feed consumption estimate: after dosing start; for Blood glucose profile following first treatment: fed DIO mice, day 1, 30 μg/kg s.c., 0-24 hours post-dose
Experimental: Female C57BL/6NHsd mice were ordered group housed from Envigo RMS Inc., shipped group housed and remained group housed with shipped cage mates in shoebox caging with wood chip bedding until day 38 of the predose phase. At the study start mice were between 25-26 weeks old.
Mice were housed under vivarium conditions that included a 12 h light/dark cycle (light phase 04:00 AM-4:00 PM), room temperatures between 23-26° C. and a relative humidity between 30-70%. All animals had free access to water and a high fat diet (TD97366) for 16 weeks prior to pharmacological intervention (dosing phase). Feed was replaced with fresh feed weekly until and for the last time on day 38 of the predose phase. During the subsequent dosing phase, approximately 50% of the remaining feed were removed, replaced with fresh feed, and pellets were mixed evenly once per week.
On predose day 38, obese DIO mice were assigned to treatment groups (n=8) to match mean body masses between all DIO groups. An age-matched group with ad libitum access to a rodent maintenance diet (Teklad Global Diets Rodent 2014, pelleted) was included in the study as a lean control group. In the predosing phase from day 32 through 38, all study animals were treated with vehicle (Phosphate Buffered Saline, PBS, Gibco, without CaCl2 and MgCl2) once daily (s.c. approximately 0.2 mL/mouse).
On day 37 of the predose phase, the test article was diluted with PBS to a concentration of 100 μg/mL and aliquots of this stock solution were stored at approximately ≤−60° C. Stock aliquots were thawed for weekly use and thereafter stored in a refrigerator at approximately 4° C. The injected test article solution was prepared fresh once on each dosing day by diluting stock solution with PBS to achieve the desired concentration.
Mice were treated twice daily with a s.c. injection of PBS-vehicle or the test article for 28 days. The morning dosing was initiated and completed between 06:00 and 07:30 AM and the afternoon dosing between 2:00 and 3:30 PM. On day 28 of the dosing phase only the morning dose was administered. The applied volume was 5 ml/kg and the dose was adjusted to the most recent body mass recording of each individual.
Animals had unlimited access to water and feed during the experiment. On day 1 of the dosing phase approximately 5 μL of blood were collected via tail clips at hour 0 prior to the first s.c. dose of PBS-vehicle or test article and 1, 2, 3, 4, 6, and 24 hours post-dose in non-anesthetized animals. The 24 hour blood collection was performed prior to dosing on day 2. Between the 6 and 24 hour blood sample the afternoon dose was administered. Glucose measurements were performed in whole blood and in duplicate or triplicate using Aviva glucometers.
Body mass was measured daily approximately between 06:00-07:30 AM from day 32 through 38 of the predosing phase and throughout the 28 days of the dosing phase. During the dosing phase mice were treated twice daily with either a s.c. injection of PBS-vehicle or test article.
To determine whole body fat mass Quantitative Nuclear Magnetic Resonance (QNMR) measurements were performed on predosing day 37 and on day 26 of the dosing phase. During the dosing phase mice were treated twice daily with either a s.c. injection of PBS-vehicle or test article.
Feed consumption was based on the daily assessment of the feeder weights of each cage between 06:00-07:30 AM. Each cage housed four mice and feed consumption was calculated throughout the 28 days of the dosing phase. During the dosing phase mice were treated twice daily with either a s.c. injection of PBS-vehicle or test article.
On day 28 blood was collected prior to any other inlife activities for determination of plasma insulin concentrations. Then the morning dose was administered and necropsy was performed 4 hours post-dose. For this purpose animals were anesthetized with isoflurane and blood was collected by orbital bleeding. […]

[2] = Dynamic light scattering, hydrodynamic radius as surrogate for DLS interaction parameter kD; format: physicochemical
Excerpt: A monochromatic and coherent light beam (laser) is used to illuminate the liquid sample. Dynamic Light Scattering (DLS) measures light scattered from particles (1 nm≤radius≤1 μm) that undergo Brownian motion. This motion is induced by collisions between the particles and solvent molecules that themselves are moving due to their thermal energy. The diffusional motion of the particles results in temporal fluctuations of the scattered light [Pecora, R. Dynamic Light Scattering: Applications of Photon Correlation Spectroscopy, Plenum Press, 1985].
The scattered light intensity fluctuations are recorded and transformed into an autocorrelation function. By fitting the autocorrelation curve to an exponential function, the diffusion coefficient D of the particles in solution can be derived. The diffusion coefficient is then used to calculate the hydrodynamic radius Rh (or apparent Stokes radius) through the Stokes-Einstein equation assuming spherical particles. This calculation is defined in ISO 13321 and ISO 22412 [International Standard ISO13321 Methods for Determination of Particle Size Distribution Part 8: Photon Correlation Spectroscopy, International Organisation for Standardisation (ISO) 1996; International Standard ISO22412 Particle Size Analysis—Dynamic Light Scattering, International Organisation for Standardisation (ISO) 2008].
For every peptide solution, the hydrodynamic radius Rh and the diffusion constant D (related via the Stokes-Einstein equation) were determined as an average over triplicates. Both parameters were determined at different peptide concentrations (e.g., Rh1 and D1: 1 mg/ml and Rh5 and D5: 5 mg/ml) in the same buffer system. The difference of these parameters between low and high peptide concentration is a surrogate for the DLS interaction parameter kD. Rh5<Rh1 or D5>D1 correspond to kD>0 and therefore to repulsive inter-particle interactions that result in improved physical (or colloidal) stability.
DLS buffer system A) 25 mM acetate buffer pH 4.5, 3 mg/mL L-Methionine, 2.7 mg/mL m-cresol, 18 mg/mL Glycerol 85%
DLS Method C: DLS measurements were performed on a DynaPro Plate Reader II (Wyatt Technology, Santa Barbara, Calif., US) and using one of the following black, low volume, and non-treated plates: polystyrene 384 assay plate with clear bottom (Corning, N.Y., US), polystyrene 96 assay plate with clear bottom (Corning, N.Y., US), cyclo olefin polymer (COP) 384 assay plate with clear bottom (Aurora, Mont., US), or polystyrene 384 assay plate with clear bottom (Greiner Bio-One, Germany). The data were processed with the Dynamics software provided by Wyatt Technology. Parameters of the particle size distribution were determined with non-negatively constrained least squares (NNLS) methods using DynaLS algorithms. Measurements were taken at 25° C. with an 830 nm laser light source at an angle of 158°.
The hydrodynamic radius Rh of peptide samples was determined at different peptide concentrations (1 mg/ml and 5 mg/ml) in DLS buffer system A using DLS method C as described in Methods as surrogate for the DLS interaction parameter kD.

| Structure (SMILES) | time until mice habituated to the feed intake suppression [1] | Feed consumption estimate [1] | Blood glucose profile following first treatment [1] | Delta Rh [nm] = Rh5 − Rh1 ([2]; DLS buffer system A pH 4.5) [nm] | Rh1 [nm] c = 1 mg/ml ([2]; hydrodynamic radius, 1 mg/ml, DLS buffer system A pH 4.5, method C, 25° C.) [nm] | Rh5 [nm] c = 5 mg/ml ([2]; hydrodynamic radius, 5 mg/ml, DLS buffer system A pH 4.5, method C, 25° C.) [nm] |
| --- | --- | --- | --- | --- | --- | --- |
| CCCCCCCCCCCCCCCC(=O)N[C@@H](CCC(=O)N[C@@H](CCC(=O)NCCCC[C@H](NC(=O)[C@H](CC(C)C)NC(=O)[C@H](CCCCN)NC(=O)[C@H](CO)NC(=O)[C@H](CC(C)C)NC(=O)[C@H](CC(=O)O)NC(=O)[C@H](CO)NC(=O)[C@@H](NC(=O)[C@H](Cc1ccccc1)NC(=O)[C@@H](NC(=O)CNC(=O)[C@H](Cc1c[nH]cn1)NC(=O)C(C)(C)NC(=O)[C@@H](N)Cc1c[nH]cn1)[C@@H](C)O)[C@@H](C)O)C(=O)N[C@@H](CCC(=O)O)C(=O)N[C@@H](CCC(=O)O)C(=O)N[C@@H](CCC(N)=O)C(=O)N[C@@H](CCCNC(=N)N)C(=O)N[C@@H](CCC(N)=O)C(=O)N[C@@H](CCCCN)C(=O)N[C@@H](CCC(=O)O)C(=O)N[C@@H](Cc1ccccc1)C(=O)N[C@H](C(=O)N[C@@H](CCC(=O)O)C(=O)N[C@@H](Cc1c[nH]c2ccccc12)C(=O)N[C@@H](CC(C)C)C(=O)N[C@@H](CCCCN)C(=O)N[C@@H](C)C(=O)NCC(=O)NCC(=O)N[C@@H](Cc1c[nH]cn1)C(=O)N1CCC[C@H]1C(=O)N[C@@H](CO)C(=O)NC(C)(C)C(=O)N[C@@H](CCCCN)C(=O)N1CCC[C@H]1C(=O)N1CCC[C@H]1C(=O)N1CCC[C@H]1C(=O)N[C@@H](CCCCN)C(N)=O)[C@@H](C)CC)C(=O)O)C(=O)O [SEQ ID NO: 6, H-Aib-H-G-T-F-T-S-D-L-S-K-L-K[gGlu-gGlu-Palm]-E-E-Q-R-Q-K-E-F-I-E-W-L-K-A-G-G-H-P-S-Aib-K-P-P-P-K-NH2] | approximately ten | suppressed feed intake | pronounced decrease in blood glucose concentrations over 24 hours | −0.9 | 2.5 | 1.7 |
| CCCCCCCCCCCCCCCC(=O)N[C@@H](CCC(=O)N[C@@H](CCC(=O)NCCCC[C@H](NC(=O)[C@H](CC(C)C)NC(=O)[C@H](CCCCN)NC(=O)[C@H](CO)NC(=O)[C@H](CC(C)C)NC(=O)[C@H](CC(=O)O)NC(=O)[C@H](CO)NC(=O)[C@@H](NC(=O)[C@H](Cc1ccccc1)NC(=O)[C@@H](NC(=O)CNC(=O)[C@H](Cc1c[nH]cn1)NC(=O)C(C)(C)NC(=O)[C@@H](N)Cc1c[nH]cn1)[C@@H](C)O)[C@@H](C)O)C(=O)N[C@@H](CCC(=O)O)C(=O)N[C@@H](CCC(=O)O)C(=O)N[C@@H](CCC(N)=O)C(=O)N[C@@H](CCCNC(=N)N)C(=O)N[C@@H](CCC(N)=O)C(=O)NC(C)(C)C(=O)N[C@@H](CCC(=O)O)C(=O)N[C@@H](Cc1ccccc1)C(=O)N[C@H](C(=O)N[C@@H](CCC(=O)O)C(=O)N[C@@H](Cc1c[nH]c2ccccc12)C(=O)N[C@@H](CC(C)C)C(=O)N[C@@H](CCCCN)C(=O)N[C@@H](C)C(=O)N[C@H](C)C(=O)NCC(=O)N1CCC[C@H]1C(=O)N1CCC[C@H]1C(=O)N[C@@H](CO)C(=O)NC(C)(C)C(=O)N[C@@H](CCCCN)C(=O)N1CCC[C@H]1C(=O)N1CCC[C@H]1C(=O)N1CCC[C@H]1C(=O)N[C@@H](CCCCN)C(N)=O)[C@@H](C)CC)C(=O)O)C(=O)O [SEQ ID NO: 11, H-Aib-H-G-T-F-T-S-D-L-S-K-L-K[gGlu-gGlu-Palm]-E-E-Q-R-Q-Aib-E-F-I-E-W-L-K-A-dAla-G-P-P-S-Aib-K-P-P-P-K-NH2] (H-H[Aib]HGTFTSDLSKLK([γGlu-γGlu-Palmitoyl])EEQRQ[Aib]EFIEWLKA[dA]GPPS[Aib]KPPPK-NH2) | approximately 15 days | suppressed feed intake | pronounced decrease in blood glucose concentrations that persisted over 24 hours |  |  |  |
